Tests used:
[1] = target: T1, Induced myeloid leukemia cell differentiation protein Mcl-1 (Homo sapiens, UniProt Q07820); assay: Binding affinity to N-terminal his6-tagged human recombinant Mcl-1 expressed in Escherichia coli assessed as dissociation constant by SPR analysis
[2] = target: Induced myeloid leukemia cell differentiation protein Mcl-1/Bcl-2-like protein 11 (Homo sapiens, UniProt Q07820); assay: Inhibition of N-terminal GST-tagged human recombinant Mcl-1 expressed in Escherichia coli /human Bim measured for 60 mins by TR-FRET based LanthaScreen Eu-Kinase binding assay
Chain of Induced myeloid leukemia cell differentiation protein Mcl-1/Bcl-2-like protein 11 (Q07820 whole entry): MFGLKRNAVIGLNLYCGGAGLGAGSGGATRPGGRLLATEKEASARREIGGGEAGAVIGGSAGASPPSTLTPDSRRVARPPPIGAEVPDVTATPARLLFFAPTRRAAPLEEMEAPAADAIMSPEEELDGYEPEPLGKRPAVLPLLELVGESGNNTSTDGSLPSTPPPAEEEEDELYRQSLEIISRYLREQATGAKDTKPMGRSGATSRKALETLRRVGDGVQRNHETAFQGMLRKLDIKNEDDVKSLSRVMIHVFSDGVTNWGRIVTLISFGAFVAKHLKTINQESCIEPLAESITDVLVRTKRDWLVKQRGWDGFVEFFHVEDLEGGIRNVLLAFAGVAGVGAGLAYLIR
Chain of Induced myeloid leukemia cell differentiation protein Mcl-1/Bcl-2-like protein 11 (O43521 whole entry, further chain): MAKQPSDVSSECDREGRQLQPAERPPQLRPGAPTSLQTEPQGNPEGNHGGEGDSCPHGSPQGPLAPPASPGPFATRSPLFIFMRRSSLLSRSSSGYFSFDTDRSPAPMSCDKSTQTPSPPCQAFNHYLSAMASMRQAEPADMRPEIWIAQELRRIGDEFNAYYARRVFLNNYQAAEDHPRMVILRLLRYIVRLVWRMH

[3] = target: BCL2/BCL2L11 (Homo sapiens, UniProt P10415); assay: Inhibition of his-tagged human recombinant Bcl-2 expressed in Escherichia coli /human Bim measured for 60 mins by TR-FRET based LanthaScreen Eu-Kinase binding assay
Chain of BCL2/BCL2L11 (P10415 whole entry): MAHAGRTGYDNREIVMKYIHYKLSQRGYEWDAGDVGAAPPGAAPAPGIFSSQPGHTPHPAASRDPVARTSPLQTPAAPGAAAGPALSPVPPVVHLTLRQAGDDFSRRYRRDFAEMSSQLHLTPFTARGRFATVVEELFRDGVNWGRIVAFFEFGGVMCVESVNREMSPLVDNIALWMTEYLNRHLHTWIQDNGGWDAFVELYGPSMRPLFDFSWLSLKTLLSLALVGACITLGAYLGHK
Chain of BCL2/BCL2L11 (O43521 whole entry, further chain): as the sequence (O43521 whole entry, further chain) above

[4] = target: T1, Induced myeloid leukemia cell differentiation protein Mcl-1; assay: Binding affinity to N-terminal his6-tagged human recombinant Mcl-1 expressed in Escherichia coli assessed as binding constant (Koff) by SPR analysis
[5] = target: T1, Induced myeloid leukemia cell differentiation protein Mcl-1; assay: Binding affinity to N-terminal his6-tagged human recombinant Mcl-1 expressed in Escherichia coli assessed as binding constant (Kon) by SPR analysis
[6] = test system: MV4-11; assay: Induction of apoptosis in human MV4-11 cells assessed as increase in caspase 3/7 activity measured after 6 hrs by Caspase-Glo 3/7 reagent based microplate reader analysis; assay type: functional, cell-based; conditions: MV4-11, 6 h
[7] = target: Bcl-xL/BAK (Homo sapiens, UniProt Q07817); assay: Inhibition of N-terminal GST-tagged Bcl-xL (1 to 209 residues) expressed in Escherichia coli /human Bak measured for 60 mins by TR-FRET based LanthaScreen Eu-Kinase binding assay
Chain of Bcl-xL/BAK (Q07817 whole entry, the tested form may be a part): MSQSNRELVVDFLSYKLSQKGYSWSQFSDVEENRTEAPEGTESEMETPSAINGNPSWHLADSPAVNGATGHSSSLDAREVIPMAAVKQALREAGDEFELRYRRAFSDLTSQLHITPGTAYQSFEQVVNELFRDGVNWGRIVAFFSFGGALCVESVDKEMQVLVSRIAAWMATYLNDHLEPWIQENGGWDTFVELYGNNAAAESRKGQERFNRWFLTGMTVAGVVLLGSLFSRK
Chain of Bcl-xL/BAK (Q16611 whole entry, further chain, the tested form may be a part): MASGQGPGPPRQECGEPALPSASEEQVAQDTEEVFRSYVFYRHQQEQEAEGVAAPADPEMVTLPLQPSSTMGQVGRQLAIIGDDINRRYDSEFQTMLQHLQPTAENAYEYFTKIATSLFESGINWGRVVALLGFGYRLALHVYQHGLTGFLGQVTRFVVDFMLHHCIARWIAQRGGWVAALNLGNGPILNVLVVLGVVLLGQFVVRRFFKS

T1 sequence (Q07820 whole entry): as the sequence (Q07820 whole entry) above

Structure (SMILES) | Kd [1] | IC50 [2] | IC50 [3] | K [4] | K [5] | EC50 [6] | IC50 [7]
CNC(=O)C[C@@H](Cc1cccc(Cl)c1)NC(=O)CN1C(=O)[C@@H](NC(=O)C[C@@H](N)Cc2ccc(Cl)cc2)CCc2ccccc21 | – | 57300 nM | > 1000 nM | – | – | – | –
CN1CCCN[C@@H](Cc2ccc([S+](C)[O-])cc2)CC(=O)N[C@H]2CCc3ccccc3N(CC(=O)N[C@H](Cc3ccc(Cl)c(Cl)c3)CC1=O)C2=O (stereo not given in full) | 770 nM | 742 nM | 1000 nM | – | – | – | –
CNC(=O)C[C@@H](Cc1ccc(Cl)cc1)NC(=O)CN1C(=O)[C@@H](NC(=O)C[C@@H](N)Cc2ccccc2)CCc2ccccc21 | – | 19500 nM | 1000 nM | – | – | – | –
CNC(=O)C[C@@H](Cc1ccc(Cl)c(Cl)c1)NC(=O)CN1C(=O)[C@@H](NC(=O)C[C@@H](N)Cc2ccc(Cl)cc2)CCc2ccccc21 | – | 1990 nM | 1000 nM | – | – | – | –
CN1CCCN[C@@H](Cc2ccc(Cl)cc2)CC(=O)N[C@H]2CCc3ccccc3N(CC(=O)N[C@H](Cc3ccc(Cl)c(-c4cc5ccccc5o4)c3)CC1=O)C2=O | 3600 nM | 1050 nM | > 1000 nM | 0.314 s⁻¹ | 1.6 10^5/M.s | – | –
O=C1C[C@@H](Cc2ccc(Cl)c(Cl)c2)NC(=O)CN2C(=O)[C@H](CCc3ccccc32)NC(=O)C[C@H](Cc2ccc(Cl)cc2)NCCCN1 | 4480 nM | 5210 nM | > 1000 nM | 0.158 s⁻¹ | 0.53 10^5/M.s | – | –
CNC(=O)C[C@@H](Cc1ccc(Cl)c(-c2ccc(Cl)c(C)c2)c1)NC(=O)CN1C(=O)[C@@H](NC(=O)C[C@@H](N)Cc2ccc(Cl)cc2)CCc2ccccc21 | – | 1930 nM | > 1000 nM | – | – | – | –
CN1CCCN[C@@H](Cc2ccc(Cl)cc2)CC(=O)N[C@H]2CCc3ccccc3N(CC(=O)N[C@H](Cc3ccc(Cl)c(/C=C/c4ccccc4)c3)CC1=O)C2=O | > 10000 nM | 2230 nM | 1000 nM | – | – | – | –
CN(C)C(=O)C[C@@H](Cc1ccc(Cl)c(Cl)c1)NC(=O)CN1C(=O)[C@@H](NC(=O)C[C@@H](N)Cc2ccc(Cl)cc2)CCc2ccccc21 | – | 2250 nM | 1000 nM | – | – | – | –
CNC(=O)C[C@@H](Cc1ccc(Cl)c(Cc2ccccc2)c1)NC(=O)CN1C(=O)[C@@H](NC(=O)C[C@@H](N)Cc2ccc(Cl)cc2)CCc2ccccc21 | – | 9210 nM | 1000 nM | – | – | – | –
CNC(=O)C[C@@H](Cc1ccc(Cl)c(Cl)c1)NC(=O)CN1C(=O)[C@@H](NC(=O)C[C@@H](N)Cc2ccc(Br)cc2)CCc2ccccc21 | – | 1490 nM | 1000 nM | – | – | – | –
CNC(=O)C[C@@H](Cc1ccc(Cl)cc1)NC(=O)CN1C(=O)[C@@H](NC(=O)C[C@@H](N)Cc2ccc(Cl)cc2)CCc2ccccc21 | – | 12500 nM | 1000 nM | – | – | – | –
CCN[C@H](CC(=O)N[C@H]1CCc2ccccc2N(CC(=O)N[C@@H](CC(=O)NC)Cc2ccc(Cl)c(Cl)c2)C1=O)Cc1ccc(Cl)cc1 | – | 2100 nM | 1000 nM | – | – | – | –

Further lines, results first:

Kd [1] | IC50 [2] | IC50 [3] | K [4] | K [5] | EC50 [6] | IC50 [7] | Structure (SMILES)
1200 nM | 375 nM | > 1000 nM | – | – | – | – | CN1CCCN[C@@H](Cc2ccc(S(C)(=O)=O)cc2)CC(=O)N[C@H]2CCc3ccccc3N(CC(=O)N[C@H](Cc3ccc(Cl)c(/C=C/c4ccccc4)c3)CC1=O)C2=O
– | 193 nM | 1000 nM | – | – | – | – | CNC(=O)C[C@@H](Cc1ccc(Cl)c(CCc2ccccc2)c1)NC(=O)CN1C(=O)[C@@H](NC(=O)C[C@@H](N)Cc2ccc(Cl)cc2)CCc2ccccc21
– | 133 nM | 1000 nM | – | – | – | – | CNC(=O)C[C@@H](Cc1ccc(Cl)c(CCc2ccccc2)c1)NC(=O)CN1C(=O)[C@@H](NC(=O)C[C@@H](N)Cc2ccc(S(C)(=O)=O)cc2)CCc2ccccc21
370 nM | 155 nM | 1000 nM | 0.212 s⁻¹ | 7.9 10^5/M.s | – | – | CN1CCCN[C@@H](Cc2ccc(Cl)cc2)CC(=O)N[C@H]2CCc3ccccc3N(CC(=O)N[C@H](Cc3ccc(Cl)c(Cl)c3)CC1=O)C2=O
530 nM | 277 nM | 1000 nM | – | – | – | – | CN1CCCCCN[C@@H](Cc2ccc(Cl)cc2)CC(=O)N[C@H]2CCc3ccccc3N(CC(=O)N[C@H](Cc3ccc(Cl)c(Cl)c3)CC1=O)C2=O
20 nM | < 3 nM | 5500 nM | 0.066 s⁻¹ | 33 10^5/M.s | 3780 nM | > 99000 nM | CN1CCCN[C@@H](Cc2ccc(S(C)(=O)=O)cc2)CC(=O)N[C@H]2CCc3ccccc3N(CC(=O)N[C@H](Cc3ccc(Cl)c(CCc4ccccc4)c3)CC1=O)C2=O
290 nM | 112 nM | 1000 nM | 0.213 s⁻¹ | 6.6 10^5/M.s | – | – | CN1CCCN[C@@H](Cc2ccc(S(C)(=O)=O)cc2)CC(=O)N[C@H]2CCc3ccccc3N(CC(=O)N[C@H](Cc3ccc(Cl)c(-c4ccc5ccccc5c4)c3)CC1=O)C2=O
720 nM | 558 nM | 1000 nM | – | – | – | – | CN1CCCN[C@@H](Cc2ccc(S(N)(=O)=O)cc2)CC(=O)N[C@H]2CCc3ccccc3N(CC(=O)N[C@H](Cc3ccc(Cl)c(Cl)c3)CC1=O)C2=O
– | 47 nM | 1000 nM | – | – | – | – | CN1CCCN[C@@H](Cc2ccc(S(C)(=O)=O)cc2)CC(=O)N[C@H]2CCc3ccccc3N(CC(=O)N[C@H](Cc3ccc(Cl)c(C#Cc4ccccc4)c3)CC1=O)C2=O
100 nM | 116 nM | 1000 nM | – | – | – | – | CN1CCCN[C@@H](Cc2ccc(S(C)(=O)=O)cc2)CC(=O)N[C@H]2CCc3ccccc3N(CC(=O)N[C@H](Cc3ccc(Cl)c(Cl)c3)CC1=O)C2=O
420 nM | 510 nM | 1000 nM | 0.476 s⁻¹ | 10.2 10^5/M.s | – | – | CN1CCCN[C@@H](Cc2ccc(S(C)(=N)=O)cc2)CC(=O)N[C@H]2CCc3ccccc3N(CC(=O)N[C@H](Cc3ccc(Cl)c(Cl)c3)CC1=O)C2=O (stereo not given in full)
3540 nM | 739 nM | 1000 nM | – | – | – | – | C[C@@H]1CCN(C)C(=O)C[C@@H](Cc2ccc(Cl)c(Cl)c2)NC(=O)CN2C(=O)[C@H](CCc3ccccc32)NC(=O)C[C@H](Cc2ccc(Cl)cc2)N1
120 nM | 48 nM | 1000 nM | – | – | – | – | C[C@H]1CCN(C)C(=O)C[C@@H](Cc2ccc(Cl)c(Cl)c2)NC(=O)CN2C(=O)[C@H](CCc3ccccc32)NC(=O)C[C@H](Cc2ccc(Cl)cc2)N1
470 nM | 116 nM | 1000 nM | 0.336 s⁻¹ | 9.5 10^5/M.s | – | – | CN1CCCN[C@@H](Cc2ccc(S(C)(=O)=O)cc2)CC(=O)N[C@H]2CCc3ccccc3N(CC(=O)N[C@H](Cc3ccc(Cl)c(-c4cc5ccccc5o4)c3)CC1=O)C2=O
340 nM | 45 nM | 1000 nM | 0.073 s⁻¹ | 3.7 10^5/M.s | – | – | CN1CCCN[C@@H](Cc2ccc(Cl)cc2)CC(=O)N[C@H]2CCc3ccccc3N(CC(=O)N[C@H](Cc3ccc(Cl)c(CCc4ccccc4)c3)CC1=O)C2=O
290 nM | 122 nM | 1000 nM | 0.082 s⁻¹ | 2.9 10^5/M.s | – | – | CN1CCCCN[C@@H](Cc2ccc(Cl)cc2)CC(=O)N[C@H]2CCc3ccccc3N(CC(=O)N[C@H](Cc3ccc(Cl)c(Cl)c3)CC1=O)C2=O

— ChEMBL document CHEMBL5260801, “Structure Based Design of Non-Natural Peptidic Macrocyclic Mcl-1 Inhibitors” (ACS Med Chem Lett, 2017)
